The text below walks through data of paper PMC8518639 (Chemmedchem, 2021).

The nature of data set [1]: Caco-2 cell permeability assay. It counts as in vitro ADME. The conditions noted are these: human; for Papp at 90 min, 10 μM: Caco-2, Papp.
In a further data set the test system is Caco‐2 cells. The data set can be described thus: Caco-2 cell permeability assay. It counts as in vitro ADME. The following applies: Caco‐2, 10 μM.
The target of the next data set is SETD2 (Homo sapiens, UniProt Q9BYW2). The experiment in a line: HotSpot Methyltransferase Profiling assay, SETD2. It counts as biochemical.
For the next data set, the target named is MLL4 complex (Homo sapiens, UniProt Q9UMN6). The experiment in a line: HotSpot Methyltransferase Profiling assay, MLL4 complex. The data set is classed as biochemical.
For another data set, the target named is PRDM9 (Homo sapiens, UniProt Q9NQV7). The data set can be described thus: HotSpot Methyltransferase Profiling assay, PRDM9. The data set is classed as biochemical.
Sequence of PRDM9 (Q9NQV7 whole entry): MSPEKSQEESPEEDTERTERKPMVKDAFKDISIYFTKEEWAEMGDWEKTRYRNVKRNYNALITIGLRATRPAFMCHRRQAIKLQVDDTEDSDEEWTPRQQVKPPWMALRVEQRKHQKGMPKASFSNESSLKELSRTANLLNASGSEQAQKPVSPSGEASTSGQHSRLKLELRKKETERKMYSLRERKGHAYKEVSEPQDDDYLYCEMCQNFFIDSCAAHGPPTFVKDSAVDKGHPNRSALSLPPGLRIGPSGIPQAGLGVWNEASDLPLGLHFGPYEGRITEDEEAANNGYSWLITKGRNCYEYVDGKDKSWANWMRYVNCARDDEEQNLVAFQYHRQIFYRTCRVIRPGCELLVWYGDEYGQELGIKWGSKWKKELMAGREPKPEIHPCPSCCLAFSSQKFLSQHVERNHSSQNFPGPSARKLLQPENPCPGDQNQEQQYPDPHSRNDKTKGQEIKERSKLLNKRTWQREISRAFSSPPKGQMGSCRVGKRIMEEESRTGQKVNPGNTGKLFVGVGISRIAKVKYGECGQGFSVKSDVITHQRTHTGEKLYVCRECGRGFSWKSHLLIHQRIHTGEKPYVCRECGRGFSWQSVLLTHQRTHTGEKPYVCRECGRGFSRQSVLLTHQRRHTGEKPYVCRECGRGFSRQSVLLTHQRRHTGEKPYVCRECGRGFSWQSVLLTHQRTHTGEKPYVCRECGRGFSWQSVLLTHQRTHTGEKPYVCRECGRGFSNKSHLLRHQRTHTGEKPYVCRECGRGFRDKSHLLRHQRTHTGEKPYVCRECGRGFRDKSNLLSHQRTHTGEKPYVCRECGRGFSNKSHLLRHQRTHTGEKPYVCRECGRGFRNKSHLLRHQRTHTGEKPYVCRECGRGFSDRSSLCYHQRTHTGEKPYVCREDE

Sequence of SETD2 (Q9BYW2 whole entry): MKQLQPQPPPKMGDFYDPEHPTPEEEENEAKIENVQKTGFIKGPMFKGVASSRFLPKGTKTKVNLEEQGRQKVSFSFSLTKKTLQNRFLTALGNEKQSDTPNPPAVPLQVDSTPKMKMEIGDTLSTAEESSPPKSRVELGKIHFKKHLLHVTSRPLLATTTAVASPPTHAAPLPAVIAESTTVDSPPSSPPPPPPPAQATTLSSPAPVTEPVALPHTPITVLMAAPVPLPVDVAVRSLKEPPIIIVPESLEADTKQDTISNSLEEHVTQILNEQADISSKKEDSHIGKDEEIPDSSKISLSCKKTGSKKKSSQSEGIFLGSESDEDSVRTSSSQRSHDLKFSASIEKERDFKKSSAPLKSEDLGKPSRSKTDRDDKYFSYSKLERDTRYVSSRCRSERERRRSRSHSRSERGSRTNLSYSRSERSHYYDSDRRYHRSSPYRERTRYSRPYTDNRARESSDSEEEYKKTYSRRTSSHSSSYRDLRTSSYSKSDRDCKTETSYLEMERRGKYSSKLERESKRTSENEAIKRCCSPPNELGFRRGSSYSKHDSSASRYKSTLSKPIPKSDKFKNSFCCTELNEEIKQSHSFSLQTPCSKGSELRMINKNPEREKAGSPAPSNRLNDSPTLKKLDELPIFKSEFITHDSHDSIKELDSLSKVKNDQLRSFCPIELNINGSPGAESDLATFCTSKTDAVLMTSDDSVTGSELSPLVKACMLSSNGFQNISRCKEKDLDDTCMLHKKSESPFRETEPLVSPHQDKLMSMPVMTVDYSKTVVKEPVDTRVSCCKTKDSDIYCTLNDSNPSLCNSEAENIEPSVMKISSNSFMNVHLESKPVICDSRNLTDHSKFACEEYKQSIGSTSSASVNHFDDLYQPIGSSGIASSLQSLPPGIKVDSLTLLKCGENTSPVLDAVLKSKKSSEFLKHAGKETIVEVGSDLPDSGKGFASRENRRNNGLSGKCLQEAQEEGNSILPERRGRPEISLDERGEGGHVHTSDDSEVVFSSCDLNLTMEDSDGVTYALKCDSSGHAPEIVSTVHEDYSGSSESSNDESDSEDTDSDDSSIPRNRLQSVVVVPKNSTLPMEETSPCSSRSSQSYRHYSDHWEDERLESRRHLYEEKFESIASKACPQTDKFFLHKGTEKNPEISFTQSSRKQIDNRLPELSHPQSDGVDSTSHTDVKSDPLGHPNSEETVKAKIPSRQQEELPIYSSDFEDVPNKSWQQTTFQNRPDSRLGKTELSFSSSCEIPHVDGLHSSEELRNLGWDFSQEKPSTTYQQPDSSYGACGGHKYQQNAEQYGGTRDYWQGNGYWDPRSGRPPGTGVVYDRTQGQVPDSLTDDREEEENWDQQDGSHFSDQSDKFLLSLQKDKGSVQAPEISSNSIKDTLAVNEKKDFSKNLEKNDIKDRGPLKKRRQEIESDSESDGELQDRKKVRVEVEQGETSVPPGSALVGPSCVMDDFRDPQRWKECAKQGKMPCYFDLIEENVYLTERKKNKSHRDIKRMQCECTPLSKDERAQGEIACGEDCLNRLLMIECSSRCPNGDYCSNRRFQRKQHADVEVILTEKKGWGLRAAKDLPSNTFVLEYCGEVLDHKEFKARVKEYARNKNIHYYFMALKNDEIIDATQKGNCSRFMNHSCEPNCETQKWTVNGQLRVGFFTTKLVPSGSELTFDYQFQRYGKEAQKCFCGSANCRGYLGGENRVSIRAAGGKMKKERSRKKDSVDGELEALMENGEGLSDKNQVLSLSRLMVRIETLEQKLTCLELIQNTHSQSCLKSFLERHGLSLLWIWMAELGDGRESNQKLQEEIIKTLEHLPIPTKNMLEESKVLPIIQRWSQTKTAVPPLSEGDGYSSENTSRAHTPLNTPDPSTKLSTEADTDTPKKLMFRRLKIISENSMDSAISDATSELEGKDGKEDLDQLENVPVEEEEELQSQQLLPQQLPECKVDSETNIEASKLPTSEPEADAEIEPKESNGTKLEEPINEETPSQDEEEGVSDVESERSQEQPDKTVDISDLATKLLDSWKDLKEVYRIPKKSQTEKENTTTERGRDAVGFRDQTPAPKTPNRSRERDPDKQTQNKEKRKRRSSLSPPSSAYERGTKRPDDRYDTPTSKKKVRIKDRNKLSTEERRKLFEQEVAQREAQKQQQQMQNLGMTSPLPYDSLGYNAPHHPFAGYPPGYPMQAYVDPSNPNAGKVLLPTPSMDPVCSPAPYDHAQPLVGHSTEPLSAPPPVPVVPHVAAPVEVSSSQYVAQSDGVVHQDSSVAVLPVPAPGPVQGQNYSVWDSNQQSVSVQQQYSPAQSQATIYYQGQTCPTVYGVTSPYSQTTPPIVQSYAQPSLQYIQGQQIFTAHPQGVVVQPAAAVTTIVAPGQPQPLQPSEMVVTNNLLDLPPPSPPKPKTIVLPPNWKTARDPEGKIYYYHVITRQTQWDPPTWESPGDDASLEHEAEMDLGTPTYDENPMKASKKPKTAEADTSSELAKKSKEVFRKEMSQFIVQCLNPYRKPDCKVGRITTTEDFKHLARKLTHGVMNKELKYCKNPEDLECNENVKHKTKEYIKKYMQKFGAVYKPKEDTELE
Sequence of MLL4 complex (Q9UMN6 2490-2715): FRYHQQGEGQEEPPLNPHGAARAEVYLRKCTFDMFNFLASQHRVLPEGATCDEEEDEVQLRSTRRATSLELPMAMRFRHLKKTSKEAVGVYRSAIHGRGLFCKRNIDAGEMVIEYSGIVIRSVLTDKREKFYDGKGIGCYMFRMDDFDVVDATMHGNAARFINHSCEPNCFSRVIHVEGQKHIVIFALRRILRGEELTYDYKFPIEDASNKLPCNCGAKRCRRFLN
Sequence of MLL4 complex (Q9C005 whole entry, further chain): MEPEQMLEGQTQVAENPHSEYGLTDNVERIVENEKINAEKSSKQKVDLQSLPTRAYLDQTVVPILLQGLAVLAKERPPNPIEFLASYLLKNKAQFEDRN
Sequence of MLL4 complex (Q15291 whole entry, further chain): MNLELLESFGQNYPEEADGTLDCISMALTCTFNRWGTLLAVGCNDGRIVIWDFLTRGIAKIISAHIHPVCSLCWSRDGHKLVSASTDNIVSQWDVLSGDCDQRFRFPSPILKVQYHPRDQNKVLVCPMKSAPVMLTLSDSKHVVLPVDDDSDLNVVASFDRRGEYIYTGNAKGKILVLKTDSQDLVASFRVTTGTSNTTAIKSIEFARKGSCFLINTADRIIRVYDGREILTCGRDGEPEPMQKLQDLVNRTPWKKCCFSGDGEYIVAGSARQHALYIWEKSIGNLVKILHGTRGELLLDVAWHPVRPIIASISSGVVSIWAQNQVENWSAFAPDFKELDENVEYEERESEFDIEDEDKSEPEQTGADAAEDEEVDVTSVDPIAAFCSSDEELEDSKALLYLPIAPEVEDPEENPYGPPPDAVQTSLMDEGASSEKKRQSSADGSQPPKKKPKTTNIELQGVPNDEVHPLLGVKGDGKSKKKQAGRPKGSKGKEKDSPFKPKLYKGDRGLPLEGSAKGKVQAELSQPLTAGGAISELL
Sequence of MLL4 complex (Q9UBL3 96-628, further chain): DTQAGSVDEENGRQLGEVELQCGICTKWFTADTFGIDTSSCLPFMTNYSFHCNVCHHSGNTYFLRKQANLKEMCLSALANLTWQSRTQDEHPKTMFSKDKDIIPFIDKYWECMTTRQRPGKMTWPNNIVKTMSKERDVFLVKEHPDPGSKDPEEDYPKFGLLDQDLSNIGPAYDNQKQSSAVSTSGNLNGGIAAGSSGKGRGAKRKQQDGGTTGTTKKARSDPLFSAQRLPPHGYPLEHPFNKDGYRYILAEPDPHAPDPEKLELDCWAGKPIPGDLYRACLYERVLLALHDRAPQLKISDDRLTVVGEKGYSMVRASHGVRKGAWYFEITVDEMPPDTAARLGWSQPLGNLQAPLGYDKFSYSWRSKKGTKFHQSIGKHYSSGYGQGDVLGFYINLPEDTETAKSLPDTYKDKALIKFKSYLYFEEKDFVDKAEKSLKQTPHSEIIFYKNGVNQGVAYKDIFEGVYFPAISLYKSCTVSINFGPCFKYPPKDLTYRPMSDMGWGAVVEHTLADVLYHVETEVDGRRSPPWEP

On to `COCCc1ccc(OCC(O)CNC(C)C)cc1` (stereo not shown) [Metoprolol], for which the apparent permeability (Papp) at 90 min, 10 μM in data set [1] (Replicate 1, Direction A‐B) stood at 33.7 ×10⁻⁶ cm/s; in data set [1] (Replicate 1, Direction B‐A), 34.7 ×10⁻⁶ cm/s; in data set [1] (Replicate 2, Direction A‐B), 31.4 ×10⁻⁶ cm/s; in data set [1] (Replicate 2, Direction B‐A), 33.3 ×10⁻⁶ cm/s. The “Papp(B−A)/Papp(A−B) (efflux ratio)” value with Caco‐2 cells worked out at 1.1.
For `CC[C@H]1OC(=O)[C@H](C)[C@@H](O[C@H]2C[C@@](C)(OC)[C@@H](O)[C@H](C)O2)[C@H](C)[C@@H](O[C@@H]2O[C@H](C)C[C@H](N(C)C)[C@H]2O)[C@](C)(O)C[C@@H](C)C(=O)[C@H](C)[C@@H](O)[C@]1(C)O` [Erythromycin], the efflux ratio at 90 min, 10 μM in data set [1] (Caco-2) is 62.9. Also, the Papp at 90 min, 10 μM in data set [1] (Replicate 1, Direction A‐B) amounted to 0.3 ×10⁻⁶ cm/s; in data set [1] (Replicate 1, Direction B‐A) it was 18.1 ×10⁻⁶ cm/s; in data set [1] (Replicate 2, Direction A‐B) it was 0.2 ×10⁻⁶ cm/s; in data set [1] (Replicate 2, Direction B‐A), 17.5 ×10⁻⁶ cm/s.
With `Nc1ncnc2c1ncn2[C@@H]1O[C@H](CSCC[C@H](N)C(=O)O)[C@@H](O)[C@H]1O` [SAH, S‐(5′‐adenosyl)‐ʟ‐homocysteine], the IC50 turned out to be 7.39 µM against SETD2 and 2.11 µM against MLL4 complex.
The molecule `CN1C(=O)[C@@]23C[C@]4([C@]56C[C@@]78SS[C@@](CO)(C(=O)N7[C@H]5Nc5ccccc56)N(C)C8=O)c5ccccc5N[C@@H]4N2C(=O)[C@]1(CO)SS3` [chaetocin] returned an IC50 against PRDM9 of 3.98 µM.
